Data published in patent publication US10059708B2, “Therapeutic targeting of the interleukin 1 receptor-associated kinase 4 (IRAK4) in leukemias characterized by rearrangements in the mixed lineage leukemia gene (MLL-r)” (Northwestern University, priority 2016, dated 2018).
“Also recorded” adds a separate entry of the source.

Key:
[1] = system: REH cells; test: REH cell proliferation (trypan blue, Vi-CELL XR); format: cell-based, human; details: IRAK1/4 inhibitor
Description: FIG. 4. […] Viable cells were seeded at 0.2 million/mL, and they were monitored by trypan blue exclusion staining and counted using a Vi-CELL XR cell counter. Data are represented as mean±SD (n=3). […] Data are represented as mean±SD (n=3). (C) Venn diagram of deregulated genes in SEM cells by IRAK1/4 and IRAK4 inhibitors. […] (D) Venn diagram of deregulated genes in SEM and REH cells by both inhibitors. Little overlap was observed between REH and SEM cells. […] Each cluster is represented by different colors and a circle node represents each enriched term. (G) UBE2O depletion and IRAK inhibition affect a common subset of genes in SEM cells. […] Heatmaps represent Z score-normalized values. See also FIG. 11.
Stabilization of MLL through IRAK Inhibition and UBE2O Depletion Regulates a Specific Gene Regulatory Network in MLL Leukemia. To measure the consequence of stabilizing MLL in MLL leukemia cells, we determined the effects of IRAK inhibition on cell proliferation of REH (MLL-germline leukemia) and SEM (MLL-AFF1) cells. Both of these cell lines are derived from precursor B cell ALL patient blast cells, and, therefore, they have been studied when comparing non-MLL (REH) and MLL-dependent (SEM) leukemia gene expression (Guenther et al., 2008).

[2] = system: MLL-UBE2O interaction; test: MLL-UBE2O interaction (HaloTag purification, MudPIT, co-immunoprecipitation); format: cell-based, human; parameters: dose or concentration left out as unconfirmed; details: Halo-MLL-Inter-transfected HEK293 cells
Description: (§1) FIG. 3. […] (D) Halo-MLL-Inter-transfected HEK293 cells were treated with […]/4 inhibitor for 24 hr, purified with HaloLink resin, and subjected to MudPIT analysis. […] Each row represents a peak of MLL occupancy (n=6,250), with rows ordered by decreasing MLL occupancy in the inhibitor-treated condition. […] Boxplots depict the read coverage for all MLL peaks. The p value was calculated with the Wilcoxon signed-rank test. See also FIG. 10.

[3] = system: MLL occupancy; test: MLL ChIP-seq in HEK293 cells; format: cell-based, human
Description: as §1
FIG. 10. […] Occupancy in reads per million (rpm)±3 kb around the center of peak is shown (N=6250). Genes are ordered by MLL occupancy in the inhibitor treatment. […] The read counts of all the MLL peaks were plotted and the Wilcoxon signed-rank test was used to calculate the p value (F).
Chromatin Immunoprecipitation Sequencing. […] ChIP-seq reads were aligned to the mouse (UCSC mm9) or human genome (UCSC hg19). Alignments were processed with Bowtie version 1.1.2, allowing only uniquely mapping reads with up to two mismatches within the 50 bp read. The resulting reads were extended to 150 bases toward the interior of the sequenced fragment and normalized to total reads aligned (reads per million, rpm). […] The average coverage (calculated using rpm tracks described above) across the entire region is shown in the boxplots where p values were calculated with the Wilcoxon signed-rank test. […]

[4] = system: SEM and REH cells; test: Total RNA-seq, SEM versus REH cells; format: cell-based, human; details: 2 days of treatment
Description: Total RNA Sequencing. […] Total RNA was extracted from Trizol according to the manufacturer's instructions. The RNA was treated with DNase I (NEB) and cleaned with the QIAGEN RNeasy mini kit. 500 ng RNA was used for library preparation with TruSeq Stranded Total RNA with Ribo-Zero Gold kit (Illumina, RS-123-2201). The sequenced reads were aligned to the human genome (UCSC hgl9) with TopHat 2.1.0 using gene annotations from Ensembl 72. Differential gene expression was performed with EdgeR (Empirical analysis of digital gene expression data in R) version 3.08 (Robinson et al., 2010). Adjusted p values were computed using the Benjamini-Hochburg method. […] P values for Venn diagrams were performed with the hypergeometric test.

[5] = system: MDS and T-ALL cells; details: subset of MDS and T-ALL cells with high expression of IRAK1; cited from earlier work
[6] = system: MLL-AF9 leukemia; test: Murine MLL-AF9 leukemia transplantation model; format: in vivo, C57BL/6 mice; details: treatment from day 10 after transplantation; IRAK1/4 inhibitor 8 mg/kg, IRAK4 inhibitor 75 mg/kg i.p. every other day; vehicle mice all dead by 31 days
Description: After transformation of MLL-AF9, c-Kit+ HSPCs were transplanted into lethally irradiated C57BL/6 mice with 1 3 106 transformed cells and 2 3 105 support cells. Leukemia cells from primary AML mice were isolated and transplanted into sublethally irradiated C57BL/6 mice. Drug treatments were started at day 10 or 19 after transplantation. (B) Kaplan-Meier survival curves of secondary transplanted C57BL/6 mice after vehicle and IRAK1/4 or IRAK4 inhibitor treatment at day 19 (blast phase). Vehicle or IRAK inhibitors were administered every other day by intraperitoneal injection for a total of five treatments. Leukemia was confirmed at the endpoint for each transplant mouse. […] The p values were calculated using the log rank test. […] The p values were calculated using the log rank test. […]
We further assessed the effects of the IRAK inhibitors in vivo using the murine MLL-AF9 leukemia transplantation model (FIG. 7A) (Volk et al., 2014). […]
Murine MLL-AF9 Leukemia Model. […] The mice were monitored for signs of acute leukemia for 2-3 months and euthanized when leukemia was evident (weight loss below 16.75 g, reduced mobility, malaise, palpable spleen, and hunched back). […]
Animal Treatment. […] Mice were monitored for leukemia development and leukemia was verified after the mice were sacrificed upon signs of illness (weight loss below 16.75 g, partial paralysis, malaise, palpable spleen, and hunched back).

[7] = system: endogenous MLL protein; test: MLL protein levels / stability in HEK293 cells (western blotting, cycloheximide chase); format: cell-based, human; parameters: dose or concentration left out as unconfirmed; details: for indicated times or different concentrations for 24 hr, relative to DMSO
[8] = system: SEM cells; test: RNA-seq gene expression profiles of SEM cells, new versus commercial IRAK inhibitors; format: cell-based, human; details: 3 days
Excerpt: FIG. 17. Comparison of novel IRAK4 inhibitors (NUCC numbers) with commercially available IRAK inhibitors (referred to here as IRAK1/4 and IRAK4) on gene expression in leukemia cells as determined by RNA-seq. SEM cells were maintained in IMDM medium with 10% FBS. […] SEM cells were harvested and used for total RNA-seq. A: PCA plot of each group with different treatments. […] B: Distance plot of each group with the indicated treatments.
The gene expression profiles of SEM cells treated with newly synthesized compound NUCC0200554 (Compound 16 of Example 2) and compound NUCC0200618 (Compound 21 of Example 2) as follows. After inhibitor treatment for 3 days, SEM cells were collected and lysed with Trizol reagent. Total RNA was extracted from Trizol according to the manufacturer's instructions. The RNA was treated with DNase I (NEB) and cleaned with the Qiagen RNeasy mini kit. 500 ng RNA was used for library preparation with TruSeq Stranded Total RNA with Ribo-Zero Gold kit (Illumina, RS-123-2201). The sequenced reads were aligned to the human genome (UCSC hgl9) with TopHat 2.1.0 using gene annotations from Ensembl 72. Differential gene expression was performed with Deseq2.

[9] = system: wild-type MLL protein; test: MLL stabilization assay (western blotting) with new compounds; format: cell-based; details: western blotting for MLL protein levels (FIG. 16A)
Description: (§2) FIG. 16. Development of novel compounds (NUCC0200618 and NUCC0200554) that stabilize the wild-type MLL protein and slow leukemic cell growth through IRAK4 inhibition. A) Western blotting for MLL protein levels in cells treated with the indicated compounds designed and synthesized at Northwestern. Protein stabilization is observed to increase by 6 hours of treatment. B) Luciferase-based IRAK4 kinase assays (Promega) with the indicated doses of the new compounds. C) Cell viability counts after 3 days of treatment with the indicated doses of the new compounds.
The newly synthesized compound NUCC0200554 (Compound 16 of Example 2) and compound NUCC0200618 (Compound 21 of Example 2) were further tested in MLL stabilization assay, in an IRAK4 kinase activity as described above, and in a SEM cell proliferation assay as follows. SEM (ACC-546) leukemia cells were maintained in Iscove's Modified Dulbecco's Medium (IMDM) with 10% FBS. Viable SEM cells were seeded at 0.2 million/ml, and treated with different concentrations of inhibitors at the indicated concentrations for three days. Viable cells were monitored by trypan blue exclusion staining and counted using a Vi-CELL XR cell counter. Data are represented as Mean±SD (n=3).

[10] = target: T1, Human IRAK4 (Homo sapiens, UniProt Q9NWZ3); test: IRAK4 kinase inhibition assay (ADP-Glo); format: biochemical; details: for Inhibition of IRAK4 kinase activity: 100 uM of each inhibitor, 12.5 uM ATP, relative activity to DMSO (FIG. 15); for IRAK4 kinase inhibition: at increasing concentration (FIG. 16B)
T1 sequence (Q9NWZ3 1-460): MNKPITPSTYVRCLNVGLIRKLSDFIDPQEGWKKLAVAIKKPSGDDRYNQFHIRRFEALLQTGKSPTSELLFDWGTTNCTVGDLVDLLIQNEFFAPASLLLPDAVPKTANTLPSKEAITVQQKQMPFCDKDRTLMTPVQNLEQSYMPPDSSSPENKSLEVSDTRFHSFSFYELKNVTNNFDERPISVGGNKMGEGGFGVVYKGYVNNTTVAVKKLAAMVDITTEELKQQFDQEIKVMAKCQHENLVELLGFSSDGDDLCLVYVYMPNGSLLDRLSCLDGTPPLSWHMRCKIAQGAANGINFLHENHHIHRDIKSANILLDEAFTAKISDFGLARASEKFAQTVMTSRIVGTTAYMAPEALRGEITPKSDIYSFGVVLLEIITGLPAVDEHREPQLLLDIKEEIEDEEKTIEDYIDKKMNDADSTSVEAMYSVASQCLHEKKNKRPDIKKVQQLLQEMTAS
Description: FIG. 15. Inhibition of IRAK4 kinase activity by NU's IRAK4 kinase inhibitors. 10 ng IRAK4, 12.5 uM ATP and 500 ng MBP (substrate) were used in the IRAK4 kinase assay. 100 uM of each inhibitor were used individual in the assay and the reaction product ADP was detected by the ADP-GLO assay. Relative activity to DMSO is shown.
as §2
The newly synthesized compounds were tested in an IRAK4 kinase inhibition assay as follows. In a 10 μl reaction, 10 ng Human IRAK4, 12.5 μM ATP, 500 ng dephosphorylated MBP (EMD Millipore), and different IRAK inhibitors were used in 1× kinase buffer (60 mM HEPES-NaOH, pH 7.5, 3 mM MgCl2, 3 mM MnCl2, 1.2 mM DTT, 0.1% BSA) at room temperature for 45 minutes. The ADP formed from the kinase reaction was measured by the ADP-Glo™ Kinase Assay (Cat.#V9101) and the luminescence was measured with a Tecan Infinite M1000 plate reader.

Compound | REH cell proliferation [1] | MLL-UBE2O interaction [2] | genome-wide MLL occupancy ([3]; HEK293 cells, 6,250 MLL peaks) | MLL occupancy at MLL target genes HOXA, HOXC, FOXC1 ([3]; HEK293 cells, 24 hr, D2M7U and NT86 antibodies) | genes downregulated in both REH and SEM cells [4] [genes] | genes upregulated in both REH and SEM cells [4] [genes] | effect of IRAK1/4 inhibitor alone [5] | sensitization to BCL2 inhibitor treatment [5] | mice that still did not develop MLL-AF9 leukemia as of day 55 [6] | MLL protein levels (MLL N320) [7] | MLL protein levels (MLL N320) ([7]; listed as IRAK1/4 inhibitor I) | PCA plot grouping of RNA-seq profile ([8]; 10 uM) | MLL stabilization [9] | Inhibition of IRAK4 kinase activity [10] | IRAK4 kinase inhibition [10] | PCA plot grouping of RNA-seq profile ([8]; 5 uM)
O=C(Nc1nc2ccccc2n1CCN1CCOCC1)c1cccc([N+](=O)[O-])c1 [IRAK1/4 inhibitor] | no effect | substantially decreased; also recorded: decreases MLL-UBE2O interaction | significant increases in MLL occupancy; also recorded: MLL occupancy is significantly increased; also recorded: general increase in MLL occupancy | enhanced MLL occupancy; also recorded: increases MLL occupancy at HOXA and HOXC loci; also recorded: increased MLL occupancy | 238 | 186 | does not substantially impair these cells | sensitize a subset of MDS and T-ALL cells | eight of ten | stabilizes endogenous MLL protein; also recorded: stabilizes MLL protein from proteasomal degradation in a dose-dependent manner | increased levels of MLL protein in a time- and dose-dependent manner | – | – | – | – | –
Nc1cccc(-c2cnc(NC(=O)c3cccc(Cl)c3)[nH]2)c1 [NUCC0200554, N-(5-(3-aminophenyl)-1H-imidazol-2-yl)-3-chlorobenzamide] | – | – | – | – | – | – | – | – | – | – | – | very similar profiles | stabilize MLL | inhibit IRAK4 kinase activity | inhibit IRAK4 kinase | –
O=C(Nc1ncc(-c2cccc(O)c2)[nH]1)c1ccccc1 [NUCC0200618, N-(5-(3-hydroxyphenyl)-1H-imidazol-2-yl)benzamide] | – | – | – | – | – | – | – | – | – | – | – | group together | stabilize MLL | inhibit IRAK4 kinase activity | inhibit IRAK4 kinase | very similar profiles
